Test results reported in patent publication US20220095618A1, “HERBICIDAL COMPOSITIONS” (SYNGENTA CROP PROTECTION AG, priority 2019, published 2022).

Legend:
Test in all cases: Post-emergence efficacy of compounds of Formula (I) (B1), glasshouse
Format in all cases: in vivo
[1] = tested on: Amaranthus palmeri (AMAPA); settings: Application Rate 500 g/Ha, evaluated after 13 days; for pest or weed control at 500 g/ha: Amaranthus palmeri, post-emergence, 312 h, read-out: Control of AMAPA after post-emergence application (100=total damage to plant; 0=no damage to plant)
Description: (§1) Seeds of a variety of test species were sown in standard Iaom-based soil in pots:— Ipomoea hederacea (IPOHE), Euphorbia heterophylla (EPHHL), Chenopodium album (CHEAL), Amaranthus palmeri (AMAPA), Lolium perenne (LOLPE), Digitaria sanguinalis (DIGSA), Eleusine indica (ELEIN), Echinochloa crus-galli (ECHCG), Setaria faberi (SETFA). After cultivation for 14 days (post-emergence) under controlled conditions in a glasshouse (at 24/16° C., day/night; 14 hours light; 65% humidity), the plants were sprayed with an aqueous spray solution derived from the dissolution of the technical active ingredient Formula (I) in a small amount of acetone and a special solvent and emulsifier mixture referred to as IF50 (11.12% Emulsogen EL360 TM+44.44% N-methylpyrrolidone+44.44% Dowanol DPM glycol ether), to create a 50 g/I solution which was then diluted to required concentration using 0.25% or 1% Empicol ESC70 (Sodium lauryl ether sulphate)+1% ammonium sulphate as diluent. The delivery of the aqueous spray solution was via a laboratory track sprayer which delivered the aqueous spray composition at a rate of 200 litres per hectare, using a flat fan nozzle (Teejet 11002VS) and an application volume of 200 litre/ha (at 2 bar).
(§2) The test plants were then grown in a glasshouse under controlled conditions (at 24/16° C., day/night; 14 hours light; 65% humidity) and watered twice daily. After 13 days the test was evaluated (100=total damage to plant; 0=no damage to plant).

[2] = tested on: Chenopodium album (CHEAL); settings: Application Rate 500 g/Ha, evaluated after 13 days; for pest or weed control at 500 g/ha: Chenopodium album, post-emergence, 312 h, read-out: Control of CHEAL after post-emergence application (100=total damage to plant; 0=no damage to plant)
Description: as §1, §2

[3] = tested on: Digitaria sanguinalis (DIGSA); settings: Application Rate 500 g/Ha, evaluated after 13 days; for pest or weed control at 500 g/ha: Digitaria sanguinalis, post-emergence, 312 h, read-out: Control of DIGSA after post-emergence application (100=total damage to plant; 0=no damage to plant)
Description: as §1, §2

[4] = tested on: Echinochloa crus-galli (ECHCG); settings: Application Rate 500 g/Ha, evaluated after 13 days; for pest or weed control at 500 g/ha: Echinochloa crus-galli, post-emergence, 312 h, read-out: Control of ECHCG after post-emergence application (100=total damage to plant; 0=no damage to plant)
Description: as §1, §2

Eleusine indica (ELEIN) = settings: Application Rate 500 g/Ha, evaluated after 13 days
Description: as §1, §2

[5] = tested on: Euphorbia heterophylla (EPHHL); settings: Application Rate 500 g/Ha, evaluated after 13 days; for pest or weed control at 500 g/ha: Euphorbia heterophylla, post-emergence, 312 h, read-out: Control of EPHHL after post-emergence application (100=total damage to plant; 0=no damage to plant)
Description: as §1, §2

[6] = tested on: Ipomoea hederacea (IPOHE); settings: Application Rate 500 g/Ha, evaluated after 13 days
Description: as §1, §2

Lolium perenne (LOLPE) = settings: Application Rate 500 g/Ha, evaluated after 13 days; for pest or weed control at 500 g/ha: Lolium perenne, post-emergence, 312 h, read-out: Control of LOLPE after post-emergence application (100=total damage to plant; 0=no damage to plant)
Description: as §1, §2

Setaria faberi (SETFA) = settings: Application Rate 500 g/Ha, evaluated after 13 days; for pest or weed control at 500 g/ha: Setaria faberi, post-emergence, 312 h, read-out: Control of SETFA after post-emergence application (100=total damage to plant; 0=no damage to plant)
Description: as §1, §2

Row | Structure (SMILES) | pest or weed control at 500 g/ha [1] [%] | pest or weed control at 500 g/ha [2] [%] | pest or weed control at 500 g/ha [3] [%] | pest or weed control at 500 g/ha [4] [%] | pest or weed control at 500 g/ha (Eleusine indica (ELEIN); Eleusine indica, post-emergence, 312 h, read-out: Control of ELEIN after post-emergence application (100=total damage to plant; 0=no damage to plant)) [%] | pest or weed control at 500 g/ha [5] [%] | pest or weed control at 500 g/ha ([6]; Ipomoea hederacea, post-emergence, 312 h, read-out: Control of IPOHE after post-emergence application (100=total damage to plant; 0=no damage to plant)) [%] | pest or weed control at 500 g/ha (Lolium perenne (LOLPE)) [%] | pest or weed control at 500 g/ha (Setaria faberi (SETFA)) [%] | Control of ELEIN after post-emergence application (100=total damage to plant; 0=no damage to plant) (Eleusine indica (ELEIN)) | Control of IPOHE after post-emergence application (100=total damage to plant; 0=no damage to plant) [6] | Control of LOLPE after post-emergence application (100=total damage to plant; 0=no damage to plant) (Lolium perenne (LOLPE)) | Control of CHEAL after post-emergence application (100=total damage to plant; 0=no damage to plant) [2] | Control of DIGSA after post-emergence application (100=total damage to plant; 0=no damage to plant) [3] | Control of ECHCG after post-emergence application (100=total damage to plant; 0=no damage to plant) [4] | Control of EPHHL after post-emergence application (100=total damage to plant; 0=no damage to plant) [5] | Control of SETFA after post-emergence application (100=total damage to plant; 0=no damage to plant) (Setaria faberi (SETFA)) | Control of AMAPA after post-emergence application (100=total damage to plant; 0=no damage to plant) [1]
1 | O=S(=O)(O)CC[n+]1ccc(-c2cnccn2)cn1 [Compound 1.004] | 100 | 100 | 100 | 80 | 100 | 100 | 60 | 60 | 90 | – | – | – | – | – | – | – | – | –
2 | Cl.O=C(O)CC[n+]1ccc(-c2cccnn2)cn1.[Cl-] [Compound 1.034, 3-(4-pyridazin-1-ium-3-ylpyridazin-1-ium-1-yl)propanoic acid dichloride] | 100 | 100 | 100 | 100 | – | 100 | – | – | 100 | 100 | 60 | 90 | – | – | – | – | – | –
3 | O=C(O)CC[n+]1ccc(-c2ncccn2)cn1.[Br-] [Compound 1.021, 3-(4-pyrimidin-2-ylpyridazin-1-ium-1-yl)propanoic acid bromide] | 100 | – | – | – | – | – | – | 70 | – | 100 | 100 | – | 100 | 100 | 100 | 100 | 100 | –
4 | O=C(O)CC[n+]1ccc(-c2cnccn2)cn1.[Cl-] [Compound 1.012, 3-(4-pyrazin-2-ylpyridazin-1-ium-1-yl)propanoic acid chloride] | – | – | – | – | – | – | – | – | – | 90 | 20 | 50 | 100 | 100 | 90 | 100 | 90 | 100
